Assay results: US20250127165A1, “USE OF 2-AMINO-3-PHENYLBUTYRIC ACID OR 2,6-DIAMINO-3-METHYLHEXANOIC ACID AS PLANT IMMUNE RESISTANCE INDUCER” (NANJING TIANNONG BIOTECHNOLOGY CO., LTD., priority 2021, published 2025)

Columns and labels:
wheat = test: Induced resistance of wheat to drought stress (25% PEG-6000); assay type: in vivo; details: for drought injury index (%) / dry weight (g) aboveground part / dry weight (g) underground part / fresh weight (g) aboveground part / fresh weight (g) underground part / length of root (cm): 6 days drought stress, 7 days recovery
Protocol: Wheat was hydroponic cultured in a 6-mesh sieve used as a container at 50 grains per sieve, and ½ Hoagland nutrient solution was changed every three days. When the wheat grew to the stage of two leaves and one bud, 2-amino-3-phenylbutyric acid solution was sprayed on the leaf surface, and the concentration of 2-amino-3-phenylbutyric acid was 0, 100 and 1,000 nM, and 0.02% Tween 20 was added as surfactant. After two days of continuous spraying, the hydroponic nutrient solution was replaced with ½ Hoagland nutrient solution containing 25% PEG-6000 on the 3rd day for stress treatment. After 6 days of drought stress, rehydration treatment was conducted. And after 7 days of recovery growth in normal nutrient solution, the drought injury index was observed and determined, and the root length and biomass were determined.
The performance characteristics of drought injury of leaves are similar to those of salt injury. The rate of drought injury and the drought injury index are introduced by using the evaluation indexes of salt injury. The formula for calculating the drought injury index is as follows, and the grading standard of drought injury is shown in Table 15.

wheat powdery mildew = test: Induced resistance of wheat seedlings to powdery mildew infection (pot test); assay type: in vivo, wheat (NAU0686); details: for disease index / relative immunization effect: concentration higher than 1,000 nM
Protocol: 2-amino-3-phenylbutyric acid was dissolved in distilled water and then gradiently diluted with distilled water into solutions of 10 nM, 100 nM, 1,000 nM, and 10,000 nM, and a blank control was set up. After germination, wheat (NAU0686) seeds were planted in sterilized soil culture pot, and cultured in a greenhouse at 23° C. (+1° C.) and 12-h light/dark conditions. When the seedlings grew to the 1-leaf-1-heart stage, a solution of 2-amino-3-phenylbutyric acid at the above concentrations was sprayed onto the stems and leaves of wheat seedlings, and repeated the treatment at 24-hour intervals for a total of two treatments. After 24 hours, fresh wheat powdery mildew spores were uniformly sprinkled onto the wheat leaves, and each treatment comprised three pots of seedlings, with 20 plants per pot. After 10 days, the disease grade of wheat in each treatment group was investigated, and the morbidity degree was recorded according to the grading standard of wheat powdery in the “Pesticides-Guidelines for the Field Efficacy Trails” (I), and the disease index and the relative immunization effect were calculated in the same manner as those of tomato spotted wilt.
Grading Standard of Wheat Powdery Mildew (per leaf): • Grade 1: The area of diseased spots accounts for 5% or less of the whole leaf area; • Grade 3: The area of diseased spots accounts for 6%-15% of the whole leaf; • Grade 5: The area of diseased spots accounts for 16%-25% of the whole leaf; • Grade 7: The area of diseased spots accounts for 26%-50% of the whole leaf; • Grade 9: The area of diseased spots accounts for 50% or more of the whole leaf area.

[1] = system: Pseudomonas syringae PstDC3000; test: Induced resistance of Arabidopsis thaliana to Pseudomonas syringae infection; assay type: in vivo; details: for disease index / number of bacteria in the leaves, CFU (mg) / number of bacteria in the leaves, CFU/mg: 3 days after inoculation; for decrease of the number of bacteria per milligram of leaves: compared with blank control
Protocol: 2-amino-3-phenylbutyric acid was dissolved in sterile water and then gradiently diluted with sterile water into solutions of 100 nM, 1,000 nM, and 10,000 nM, and a blank control was set up, while 0.02% Tween 20 was added as surfactant. The Pseudomonas syringae PstDC3000 was coated on the LB plate and cultured at 28° C. for 48 hours. Single colonies were picked and inoculated into a 50 mL centrifuge tube containing 2 mL of medium, cultured at 28° C. on a shaker at 250 rpm. The change of OD600 value of the bacterial solution was monitored every 1-2 hours until it reached 0.8, and the culture of the bacteria was stopped. 1 mL of the bacterial solution was transferred into a 1.5 mL sterile centrifuge tube and centrifuged at 8,000 rpm for 2 min to collect the precipitate. The supernatant was removed, and the precipitate was washed 3 times with 10 mM magnesium chloride and centrifuged, and finally the PstDC3000 was resuspended in 10 mM magnesium chloride to reach an OD600 value of […] for later use. The Arabidopsis thaliana seeds were soaked in 75% alcohol for 3 min, then washed 4 times with sterile water and planted in a Petri dish containing ½ MS medium. Twelve seeds were planted in each petri dish, and ½ MS petri dishes with seeds were vernalized at 4° C. for 3 d to break dormancy and then placed in a culture room at 22° C. with a light intensity of 100 μE m^−2s^−1 (16 h light/8 h darkness). When the seedlings grew for 2 weeks, the 2-amino-3-phenylbutyric acid solutions at different concentrations were slowly poured into the petri dish until the whole Arabidopsis thaliana seedlings were submerged, and kept for 2-3 minutes, and then the treatment solution was poured out of the petri dish. The treatment was performed once every 24 h for a total of 2 treatments. 24 hours after the second treatment, the PstDC3000 suspension (OD600=0.01) was inoculated onto the leaves of Arabidopsis thaliana by the same submerge method. After inoculation, the petri dish was closed with a medical breathable adhesive tape and placed in the culture room for further culture. After 3 days, the number of bacteria in different treatments was determined and the incidence of Arabidopsis thaliana was observed. The disease index was calculated in the same manner as that in Example 2.
Grading standard of Disease injury caused by PstDC3000 (per leave): • Grade 0: No diseased patches on the leaves; • Grade 1: The area of diseased spots accounts for 0%-10% of the whole leaf; • Grade 2: The area of diseased spots accounts for 10%-25% of the whole leaf; • Grade 3: The area of diseased spots accounts for 25%-50% of the whole leaf; • Grade 4: The area of diseased spots accounts for 50%-75% of the whole leaf; • Grade 5: The area of diseased spots accounts for 75%-100% of the whole leaf.

| SMILES | drought injury index (%) (wheat; 100 nM) | dry weight (g) aboveground part (wheat; 100 nM) [b g] | dry weight (g) underground part (wheat; 100 nM) [b g] | fresh weight (g) aboveground part (wheat; 100 nM) [b g] | fresh weight (g) underground part (wheat; 100 nM) [b g] | length of root (cm) (wheat; 100 nM) | decrease of drought injury index (wheat; 1,000 nM) [%] | increase of fresh weight of aboveground part compared with the control group (wheat; 1,000 nM) [%] | increase of fresh weight of underground part compared with the control group (wheat; 1,000 nM) [%] | increase of root length compared with the control group (wheat; 1,000 nM) [%] | drought injury index (%) (wheat; 1,000 nM) | dry weight (g) aboveground part (wheat; 1,000 nM) [a g] | dry weight (g) underground part (wheat; 1,000 nM) [a g] | fresh weight (g) aboveground part (wheat; 1,000 nM) [a g] | fresh weight (g) underground part (wheat; 1,000 nM) [a g] | length of root (cm) (wheat; 1,000 nM) [a cm] | relative immunization effect (%) (wheat powdery mildew; 10 nM) | relative immunization effect (%) (wheat powdery mildew; 100 nM) | relative immunization effect (%) (wheat powdery mildew; 1,000 nM) | relative immunization effect (%) (wheat powdery mildew; 10,000 nM) | further results |
| --- | --- | --- | --- | --- | --- | --- | --- | --- | --- | --- | --- | --- | --- | --- | --- | --- | --- | --- | --- | --- | --- |
| CC(CCCN)C(N)C(=O)O (centres unmarked) [2,6-diamino-3-methylhexanoic acid] | 40 | 0.94 ± 0.01 | 0.42 ± 0.01 | 7.70 ± 0.02 | 3.79 ± 0.01 | 14.35 ± 0.08 b cm | 59 | 31.03 | 34.42 | 9.77 | 21 | 1.05 ± 0.01 | 0.49 ± 0.01 | 8.99 ± 0.01 | 4.59 ± 0.03 | 14.63 ± 0.12 | 28.13 | 48.99 | 65.26 | 73.45 | disease index (wheat powdery mildew): lower than 50; relative immunization effect (wheat powdery mildew): more than 50%; decrease of the disease index ([1]; 100 nM): 50.96%; disease index ([1]; 100 nM): 42.01 ± 1.36 b; number of bacteria in the leaves, CFU (mg) ([1]; 100 nM): 8.42 × 10^5 CFU (mg); decrease of the number of bacteria per milligram of leaves ([1]; 100 nM): 73.93%; decrease of the disease index ([1]; 1,000 nM): 56.15%; disease index ([1]; 1,000 nM): 37.57 ± 0.24 c; number of bacteria in the leaves, CFU (mg) ([1]; 1,000 nM): 5.12 × 10^5 CFU (mg); decrease of the number of bacteria per milligram of leaves ([1]; 1,000 nM): 84.15%; decrease of the disease index ([1]; 10,000 nM): 76.82%; number of the bacteria per mg leaves ([1]; 10,000 nM): 1.58×10^5 per mg leaves; number of bacteria in the leaves, CFU (mg) ([1]; 10,000 nM): 1.58 × 10^5 CFU (mg); decrease of the number of bacteria per milligram of leaves ([1]; 10,000 nM): 95.11% |
| CC(c1ccccc1)C(N)C(=O)O (centres unmarked) [2-amino-3-phenylbutyric acid] | 46 | 0.87 ± 0.01 | 0.38 ± 0.01 | 7.51 ± 0.24 | 3.77 ± 0.23 | 14.23 ± 0.12 a cm | 46 | 46.33 | 55.14 | 11.87 | 27 | 0.94 ± 0.05 | 0.43 ± 0.02 | 8.97 ± 0.32 | 4.53 ± 0.01 | 14.70 ± 0.37 | 19.88 | 30.77 | 55.38 | 66.92 | disease index (wheat powdery mildew): lower than 50; relative immunization effect (wheat powdery mildew): more than 50%; decrease of the disease index ([1]; 100 nM): 52.57%; disease index ([1]; 100 nM): 38.04 ± 1.04 b; number of bacteria in the leaves, CFU/mg ([1]; 100 nM): 2.40 × 10^5 CFU/mg; decrease of the number of bacteria per milligram of leaves ([1]; 100 nM): 92.05%; decrease of the disease index ([1]; 1,000 nM): 58.45%; disease index ([1]; 1,000 nM): 33.33 ± 4.17 c; number of bacteria in the leaves, CFU/mg ([1]; 1,000 nM): 2.13 × 10^5 CFU/mg; decrease of the number of bacteria per milligram of leaves ([1]; 1,000 nM): 92.94%; decrease of the disease index ([1]; 10,000 nM): 81.82%; number of the bacteria per mg leaves ([1]; 10,000 nM): 1.34×10^5 per mg leaves; number of bacteria in the leaves, CFU/mg ([1]; 10,000 nM): 1.34 × 10^5 CFU/mg; decrease of the number of bacteria per milligram of leaves ([1]; 10,000 nM): 95.56% |
